From patent US11427567B2, “Imidazolyl pyrimidinylamine compounds as CDK2 inhibitors” (Incyte Corporation, priority 2019, dated 2022)

These compounds were tested against CDK2/Cyclin E1 (Homo sapiens (Human), UniProt P24941) (assay: CDK2/Cyclin E1 HTRF enzyme activity assay (Example A)). Details: 1 mM ATP.
Type: biochemical
Protocol: Assays were conducted in white 384-well polystyrene plates in a final reaction volume of 8 μL. […] HTRF signals were read after 1 hour at room temperature on a PHERAstar FS plate reader (BMG Labtech). Data was analyzed with IDBS XLFit and GraphPad Prism 5.0 software using a three or four parameter dose response curve to determine IC50 for each compound.

SMILES	IC50
Cc1ccc(-n2cnc(-c3nc(N[C@H]4CCN(S(C)(=O)=O)C[C@H]4F)ncc3C(F)(F)F)c2)c(C(F)(F)F)n1 [Example 46, N-((3R,4S)-3-Fluoro-1-(methylsulfonyl)piperidin-4-yl)-4-(1-(6-methyl-2-(trifluoromethyl)pyridin-3-yl)-1H-imidazol-4-yl)-5-(trifluoromethyl)pyrimidin-2-amine]	≤ 50 nM
Cc1c(C#N)cccc1-n1cc(-c2nc(N[C@H]3CCN(S(C)(=O)=O)C[C@H]3F)ncc2C(F)(F)F)nc1C [Example 306, 3-(4-(2-(((3R,4S)-3-Fluoro-1-(methylsulfonyl)piperidin-4-yl)amino)-5-(trifluoromethyl)pyrimidin-4-yl)-2-methyl-1H-imidazol-1-yl)-2-methylbenzonitrile]	≤ 50 nM
CS(=O)(=O)N1CCC(Nc2ncc(C(F)(F)F)c(-c3cn(-c4c(F)cc(CN5CCC5)cc4Cl)cn3)n2)CC1 [Example 395, 4-(1-(4-(Azetidin-1-ylmethyl)-2-chloro-6-fluorophenyl)-1H-imidazol-4-yl)-N-(1-(methyslulfonyl)piperidin-4-yl)-5-(trifluoromethyl)pyrimidin-2-amine]	≤ 50 nM
C[C@@H]1CN(S(C)(=O)=O)CC[C@@H]1Nc1ncc(C(F)(F)F)c(-c2cn(-c3ccc(C4CCCCN4)cc3Cl)cn2)n1 (single isomer, unassigned) [Example 278]	≤ 50 nM
Cc1nc(-c2nc(NC3CCN(S(C)(=O)=O)CC3)ncc2C(F)(F)F)cn1-c1ccc(CN2CC(C)C2)cc1F [Example 283, 4-(1-(2-Fluoro-4-((3-methylazetidin-1-yl)methyl)phenyl)-2-methyl-1H-imidazol-4-yl)-N-(1-(methylsulfonyl)piperidin-4-yl)-5-(trifluoromethyl)pyrimidin-2-amine]	≤ 50 nM
Cc1nc(-c2nc(NC3CCN(S(C)(=O)=O)CC3)ncc2C(F)(F)F)cn1-c1ccc(N2CCN(C)C(=O)C2)cc1F [Example 108, 4-(3-Fluoro-4-(2-methyl-4-(2-((1-(methylsulfonyl)-piperidin-4-yl)-amino)-5-(trifluoro-methyl)pyrimidin-4-yl)-1H-imidazol-1-yl)phenyl)-1-methylpiperazin-2-one]	≤ 50 nM
CS(=O)(=O)N1CCC(Nc2ncc(C(F)(F)F)c(-c3cn(-c4cccc(CN5CC(C#N)C5)c4C(F)(F)F)cn3)n2)CC1 [Example 470, 1-(3-(4-(2-((1-(Methylsulfonyl)piperidin-4-yl)amino)-5-(trifluoromethyl)pyrimidin-4-yl)-1H-imidazol-1-yl)-2-(trifluoromethyl)benzyl)azetidine-3-carbonitrile]	≤ 50 nM
CS(=O)(=O)N1CCC(Nc2ncc(C(F)(F)F)c(-c3cn(-c4ccc(CN5CC6CCC5CO6)cc4Cl)cn3)n2)CC1 (centres unmarked) [Example 216, 4-(1-(4-((2-Oxa-5-azabicyclo[2.2.2]-octan-5-yl)methyl)-2-chlorophenyl)-1H-imidazol-4-yl)-N-(1-(methylsulfonyl)-piperidin-4-yl)-5-(trifluoromethyl)-pyrimidin-2-amine]	≤ 50 nM
CCNCc1ccc(-n2cc(-c3nc(N[C@H]4CCN(S(C)(=O)=O)C[C@H]4F)ncc3C(F)(F)F)nc2C)c(F)c1 [Example 389, 4-(1-(4-((Ethylamino)methyl)-2-fluorophenyl)-2-methyl-1H-imidazol-4-yl)-N-((3R,4S)-3-fluoro-1-(methylsulfonyl)piperidin-4-yl)-5-(trifluoromethyl)pyrimidin-2-amine]	≤ 50 nM
Cn1cnc(-c2nc(NC3CCN(S(C)(=O)=O)CC3)ncc2C(F)(F)F)c1Cl [Example 14, 4-(5-Chloro-1-methyl-1H-imidazol-4-yl)-N-(1-(methylsulfonyl)piperidin-4-yl)-5-(trifluoromethyl)pyrimidin-2-amine]	≤ 50 nM
Cc1nc(-c2nc(NC3CCN(S(C)(=O)=O)CC3)ncc2C(F)(F)F)cn1-c1ccc(C2CN(C[C@@H](C)O)C2)cc1F [Example 421, (R)-1-(3-(3-Fluoro-4-(2-methyl-4-(2-((1-(methylsulfonyl)piperidin-4-yl)amino)-5-(trifluoromethyl)pyrimidin-4-yl)-1H-imidazol-1-yl)phenyl)azetidin-1-yl)propan-2-ol]	≤ 50 nM
CS(=O)(=O)N1CCC(Nc2ncc(C(F)(F)F)c(-c3cn(-c4ccc(CNCC(F)F)cc4C(F)(F)F)cn3)n2)CC1 [Example 448, 4-(1-(4-(((2,2-Difluoroethyl)amino)methyl)-2-(trifluoromethyl)phenyl)-1H-imidazol-4-yl)-N-(1-(methylsulfonyl)piperidin-4-yl)-5-(trifluoromethyl)pyrimidin-2-amine]	≤ 50 nM
CNCc1ccc(-n2cnc(-c3nc(NC4CCN(S(C)(=O)=O)CC4)ncc3C(F)(F)F)c2)c(Cl)c1F [Example 268, 4-(1-(2-Chloro-3-fluoro-4-((methylamino)methyl)phenyl)-1H-imidazol-4-yl)-N-(1-(methylsulfonyl)piperidin-4-yl)-5-(trifluoromethyl)pyrimidin-2-amine]	≤ 50 nM
CN(C)CCNc1ccc(-n2cnc(-c3nc(NC4CCN(S(C)(=O)=O)CC4)ncc3C(F)(F)F)c2)c(C#N)c1 [Example 432, 5-((2-(Dimethylamino)ethyl)amino)-2-(4-(2-((1-(methylsulfonyl)piperidin-4-yl)amino)-5-(trifluoromethyl)pyrimidin-4-yl)-1H-imidazol-1-yl)benzonitrile]	≤ 50 nM
CS(=O)(=O)N1CCC(Nc2ncc(C(F)(F)F)c(-c3cn(-c4ccc5nccnc5c4Br)cn3)n2)CC1 [Example 162, 4-(1-(5-Bromoquinoxalin-6-yl)-1H-imidazol-4-yl)-N-(1-(methylsulfonyl)piperidin-4-yl)-5-(trifluoromethyl)pyrimidin-2-amine]	≤ 50 nM
C[C@]1(O)CCN(Cc2ccc(-n3cnc(-c4nc(NC5CCN(S(C)(=O)=O)CC5)ncc4C(F)(F)F)c3)c(C(F)(F)F)c2)C1 [Example 261, (S)-3-Methyl-1-(4-(4-(2-((1-(methylsulfonyl)piperidin-4-yl)amino)-5-(trifluoromethyl)pyrimidin-4-yl)-1H-imidazol-1-yl)-3-(trifluoromethyl)benzyl) pyrrolidin-3-ol]	≤ 50 nM
COCCNc1ccc(-n2cnc(-c3nc(NC4CCN(S(C)(=O)=O)CC4)ncc3C(F)(F)F)c2)c(Cl)c1 [Example 144, 4-(1-(2-Chloro-4-((2-methoxyethyl)-amino)phenyl)-1H-imidazol-4-yl)-N-(1-(methylsulfonyl)-piperidin-4-yl)-5-(trifluoromethyl)-pyrimidin-2-amine]	≤ 50 nM
CS(=O)(=O)N1CCC(Nc2ncc(C(F)(F)F)c(-c3cn(-c4ccc(CN5CCCCC5)cc4C#N)cn3)n2)CC1 [Example 345, 2-(4-(2-((1-(Methylsulfonyl)piperidin-4-yl)amino)-5-(trifluoromethyl)pyrimidin-4-yl)-1H-imidazol-1-yl)-5-(piperidin-1-ylmethyl)benzonitrile]	≤ 50 nM

Next, values leading:

IC50	SMILES
≤ 50 nM	CCS(=O)(=O)N1CCC(Nc2ncc(C(F)(F)F)c(-c3cn(CC(C)(C)O)cn3)n2)CC1 [Example 324, 1-(4-(2-((1-(Ethylsulfonyl)piperidin-4-yl)amino)-5-(trifluoromethyl)pyrimidin-4-yl)-1H-imidazol-1-yl)-2-methylpropan-2-ol]
≤ 50 nM	CS(=O)(=O)N1CCC(Nc2ncc(C(F)(F)F)c(-c3cn(-c4cccc(C#N)c4CO)cn3)n2)CC1 [Example 232, 2-(Hydroxymethyl)-3-(4-(2-((1-(methylsulfonyl)piperidin-4-yl)amino)-5-(trifluoromethyl)pyrimidin-4-yl)-1H-imidazol-1-yl)benzonitrile]
≤ 50 nM	CS(=O)(=O)N1CCC(Nc2ncc(C(F)(F)F)c(-c3cn(-c4cccnc4C#N)cn3)n2)CC1 [Example 34, 3-(4-(2-((1-(Methylsulfonyl)piperidin-4-yl)amino)-5-(trifluoromethyl)pyrimidin-4-yl)-1H-imidazol-1-yl)picolinonitrile]
≤ 50 nM	CNC(=O)c1ccc(-n2cnc(-c3nc(NC4CCN(S(C)(=O)=O)CC4)ncc3C(F)(F)F)c2)c(Cl)c1Cl [Example 137, 2,3-Dichloro-N-methyl-4-(4-(2-((1-(methylsulfonyl)piperidin-4-yl)amino)-5-(trifluoromethyl)pyrimidin-4-yl)-1H-imidazol-1-yl)benzamide]
≤ 50 nM	Cn1cc(S(=O)(=O)N2CC[C@@H](Nc3ncc(C(F)(F)F)c(-c4cn(CC(C)(C)O)cn4)n3)[C@H](F)C2)cn1 [Example 336, 1-(4-(2-(((3R,4R)-3-Fluoro-1-((1-methyl-1H-pyrazol-4-yl)sulfonyl)piperidin-4-yl)amino)-5-(trifluoromethyl)pyrimidin-4-yl)-1H-imidazol-1-yl)-2-methylpropan-2-ol]
≤ 50 nM	Cn1cc(S(=O)(=O)N2CCC(Nc3ncc(C(F)(F)F)c(-c4cn(-c5cccnc5C(F)F)cn4)n3)CC2)cn1 [Example 88, 4-(1-(2-(Difluoromethyl)pyridin-3-yl)-1H-imidazol-4-yl)-N-(1-((1-methyl-1H-pyrazol-4-yl)sulfonyl)piperidin-4-yl)-5-(trifluoromethyl) pyrimidin-2-amine]
≤ 50 nM	C[C@@]1(O)CCN(Cc2ccc(-n3cnc(-c4nc(NC5CCN(S(C)(=O)=O)CC5)ncc4C(F)(F)F)c3)c(Cl)c2)C1 [Example 181, (R)-1-(3-Chloro-4-(4-(2-((1-(methylsulfonyl)piperidin-4-yl)amino)-5-(trifluoromethyl)pyrimidin-4-yl)-1H-imidazol-1-yl)benzyl)-3-methylpyrrolidin-3-ol]
≤ 50 nM	C[C@@H]1CN(S(C)(=O)=O)CC[C@@H]1Nc1ncc(C(F)(F)F)c(-c2cn(-c3ccc(CNCC#N)cc3Cl)cn2)n1 [Example 217, 2-((3-Chloro-4-(4-(2-(((3R,4S)-3-methyl-1-(methylsulfonyl)-piperidin-4-yl)amino)-5-(trifluoromethyl)-pyrimidin-4-yl)-1H-imidazol-1-yl)benzyl)-amino)acetonitrile]
